Reference: patent publication US20240139166A1, “OPHTHALMIC COMPOSITIONS FOR PRESBYOPIA” (Sydnexis, Inc., priority 2021, published 2024)

Assay: Stability of pilocarpine in deuterated water (pilocarpic acid formation)
Type: physicochemical
Procedure: The stability of pilocarpine was tested over a range of concentrations. Pilocarpic acid formation, a major degradant of pilocarpine, was measured. […] The stability of pilocarpine, as measured by the percent of pilocarpic acid formation, was measured at different pH/pD values, as depicted in FIG. 2.

CC[C@@H]1C(=O)OC[C@@H]1Cc1cncn1C [pilocarpine]
Stability (pilocarpic acid formation) in deuterated water versus non-deuterated water (FIG. 1): improved stability in deuterated water as compared to non-deuterated water | Stability (pilocarpic acid formation) over a range of pilocarpine concentrations (FIG. 1): improved stability at higher concentrations of pilocarpine | Stabilizing factor of deuterated water versus pilocarpine concentration (FIG. 1): stabilizing factor increases as pilocarpine concentration decreases | Rate of pilocarpic acid formation at different pH/pD values (FIG. 2): linear log/log relationship was identified between the log(rate of pilocarpic acid formation) and pH
